Three substances from patent US20230220047A1, “PEPTIDES FOR TREATMENT OF SEPSIS AND CANCER” (NORWEGIAN UNIVERSITY OF SCIENCE AND TECHNOLOGY (NTNU), priority 2020, published 2023) can be followed below.

Assay [1] concerns primary Vk*MYC multiple myeloma cells. Put plainly: Primary Vk*MYC multiple myeloma cells. The assay is classed as cell-based, mouse. Conditions: 7.5 or 15 μM, 48 h. On the procedure:
Isolated primary cells were seeded then incubated for 48 hours in growth medium supplemented with water, penetratin, P7-Pen, P7-A4-Pen or P7-N4-Pen, then counted. Peptides were included at concentrations of 7.5 or 15 μM. […] Results are based on 3 biological replicates, error bars show standard deviation of mean.
Multiple myeloma cells JJN-3 (DSMZ (Germany) no. ACC 541), ANBL-6 (Cellosaurus accession number CVCL_5425, obtained from Dr Diane Jelinek, Mayo Clinic, Rochester, Minn.), INA-6 (Cellosaurus accession number CVCL_5209, obtained from Dr M. Gramatzki, University of Erlangen-Nurnberg, Erlangen, Germany), RPMI-8226 (ATCC CCL-155), and IH-1 (Cellosaurus accession number CVCL_WZ44, established from the pleural effusion of a myeloma patient by Myeloma research group, IKOM, NTNU, Trondheim, Norway) were grown in RPMI-1640 (Sigma-Aldrich Norway, Oslo, Norway) supplemented with 100 nM penicillin/streptomycin and 10% FCS, and for ANBL-6, IH-1 and INA-6 cells 2 ng/ml recombinant IL-6 (Gibco, Thermo Fisher Scientific, Waltham, Mass., USA). Murine multiple myeloma Vk*MYC cells were obtained from M.D. Leif Bergsagel (Mayo Clinic, Richester, Minn., USA) and cultured in RPMI-1640 supplemented with 2% human serum (B^+, The blood bank, St Olav's Hospital, Trondheim, Norway), 100 nM penicillin/streptomycin, L-Glutamine (2 mM) and recombinant IL-6 (1 ng/ml). HEK293T (ATCC CRL-3216) were cultured in DMEM with 10% FCS. THP-1 TRAM knockout (KO) and TLR4 KO cell lines, and matching lentivirally transduced control cell lines, were differentiated in the same way as wild type (WT) THP-1. TRAM KO THP-1 cell line is described in Yurchenko et al. (supra).
Primary multiple myeloma cells were isolated from Vk*Myc mice and provided by the Multiple Myeloma Research Group, IKOM, NTNU. The peptides P7-Pen, P7-N4-Pen and P7-A4-Pen were applied to the cultured primary cells and effect of the peptides on cell growth analysed as previously.

The subject of the next assay is TLR4. Put plainly: qPCR of TLR4-mediated cytokine expression in B6 immortalised murine macrophages. Conditions: 10 μM, 1 h pre-treatment, LPS 100 ng/ml. The class given is cell-based, mouse. On the procedure:
Cells were pre-treated with 10 μM peptides in cell culture media for 1 h, and stimulated with LPS (100 ng/ml) for increasing lengths of time.
Immortalized bone-derived-macrophages (iBMDM) from wild type, Tram−/− or TIr4−/− C57BL/6 mice were maintained at 37° C. and 5% CO2 in DMEM supplemented with 10% FCS.
Total RNA was isolated from the cells using Qiazol reagent #79306 from QIAGEN, and chloroform extraction followed by purification on RNeasy Mini columns with DNAse digestion (Qiagen). cDNA was prepared using the Maxima First Strand cDNA Synthesis Kit for quantitative real-time polymerase chain reaction (RT-qPCR) (Thermo Fisher Scientific) according to the manufacturer's protocol. qPCR was performed using the PerfeCTa qPCR FastMix (Quanta Biosciences) in replicates and cycled in a StepOnePlus™ Real-Time PCR cycler. The following TaqMan® Gene Expression Assays (Applied Biosystems®) were used: IFNβ (Hs01077958_s1), TNF (Hs00174128_m1), TBP (Hs00427620_m1), CXCL10 (Hs01124251_g1), IL-6 (Hs00174131_m1) and IL-1β (Hs01555410_m1), for human cells; Ifnβ (Mm00439552_s1), Tnf (Mm00443258_m1), Tbp (Mm01277042_m1) and II-1β (Mm00434228_m1), for mouse cells. No RT controls were negative. The level of TBP mRNA was used for normalisation and results presented as relative expression compared to the control untreated sample. Relative expression was calculated using Pfaffl's mathematical model (Pfaffl, Nucleic Acids Research 29(9): e45, 2001). Results are presented as the mean and SD expression fold change for biological replicates relative to non-stimulated cells. Statistical significance was evaluated in GraphPad Prizm 5.03. Data distribution was assumed to be normal but this was not formally tested. The difference between the two groups was determined by two-tailed t test.
We proceeded with cellular assays to address the effect of peptide pre-treatment on TLR4-mediated cytokine expression in B6 immortalised murine macrophages (FIG. 13). Tested peptides had no cytotoxic effect on B6 murine macrophages (FIG. 13A).
Background: Quantitative PCR measures a nucleic acid by following its amplification.

The subject of another assay is E. coli particles. Put plainly: Whole blood assay, E. coli particle stimulation. The class given is cell-based, human.
For a further assay, the system named is TLR8. Put plainly: Whole blood assay, CL075 stimulation. The class given is cell-based, human. The source says: […] Results are for at least 6 donors. The Wilcoxon matched-pairs signed rank test was used for statistical analysis between 2 groups in Prizm 8.2.1. In each graph, circles indicate whole blood pre-treated with water, squares indicate blood pre-treated with control peptide (average for treatment with Pen and C3-Pen), and triangles indicate pre-treatment with P7-Pen.
To evaluate the effect of peptides in an ex vivo system, a human whole blood model was used. Peripheral venous blood was drawn from 6 healthy donors into sterile polypropylene tubes (Thermo Scientific™ Nunc™ Biobanking and Cell Culture Cryogenic Tubes) containing the anti-coagulant Lepirudin (Refludan®; Celgene). Peptide solutions were made by diluting peptide stocks in DPBS (Dulbecco's Phosphate Buffered Saline with MgCl2 and CaCl2; Sigma-Aldrich) to obtain a final concentration of 140 μM. Peptide solution or DPBS was distributed in equal volume (50 μL) to 1.8 mL sterile polypropylene tubes (Thermo Scientific™Nunc™ Biobanking and Cell Culture Cryogenic Tubes). 250 μL whole blood was then added to the 1.8 mL tubes containing peptide solution or DPBS, and incubated at 37° C. under constant rotation for 1 h (concentration of peptides for pre-incubation: 23.3 μM). Stimulation solutions were made by diluting K12 LPS or CL075 in DPBS to obtain a final concentration in whole blood of 100 ng/mL (LPS) or 1 μg/mL (CL075) after addition of 50 μL stimulation solution or DPBS. Concentration of peptides in whole blood samples was reduced by this to 20 μM. Tubes were incubated at 37° C. under constant rotation for 4 h. Finally, plasma was isolated from the whole blood specimens by centrifugation, collected in 96 well plates (Corning® 96 Well CellBIND® Microplates), and stored at −20/−80° C. until analysis by multiplex/27-plex cytokine assay or IFNβ ELISA (VeriKine-HS Human Interferon Beta Serum ELISA Kit; pbl Assay Science).

“Also recorded” adds a separate entry of the source.

As to “Ac-ITVAASVTLTGRQIKIWFQNRRMKWKK-NH2 [Peptide P7-A4-Pen]”, the “effect on primary multiple myeloma cells” value in assay [1] is “strong cytotoxic effect”. The “TLR4-mediated Ifnβ, Tnf and Il-1β mRNA expression” value in the assay with TLR4 is “strongly inhibited”.
With “Ac-ITVYASVTLTGRQIKIWFQNRRMKWKK-NH2 [Peptide P7-Pen]”, the “effect on primary multiple myeloma cells” value in assay [1] is reported as “strong cytotoxic effect”. Further, in the assay on E. coli particles (20 μM, 4 h), the “E. coli-mediated IFNβ secretion” value is given as “significantly inhibiting”, the “E. coli-mediated IL-1β secretion” value is given as “no significant effect” and the “E. coli-mediated TNF production” value is given as “Significant inhibition”. The “E. coli-mediated IL-6” value in the assay on E. coli particles (20 μM, 4 h, not statistically significant) was “a degree of inhibition”. Also, in the assay on TLR8 (20 μM, CL075), the “TLR8-mediated pro-inflammatory cytokine secretion” value was “no significant effect”. Moreover, the “TLR8-mediated IFNβ release/secretion by whole blood cells” value in the assay on TLR8 (20 μM, CL075 1 μg/ml 4 h) is on record as “effectively abrogated; also recorded: inhibited”. In addition, the “TLR4-mediated Ifnβ, Tnf and Il-1β mRNA expression” value with TLR4 is on record as “strongly inhibited”.
Turning to “Ac-ITVYASVTLTGRRRRRRRRRRR-NH2 [Peptide P7-Arg11]”, in the assay with E. coli particles (pilot assay, 10 μM, E. coli particles), the “E. coli-mediated IFNβ secretion by whole blood cells” value is “inhibited”. In the assay on TLR8 (pilot assay, 10 μM, CL075 1 μg/ml), the “CL075-mediated IFNβ secretion by whole blood cells” value is on record as “inhibited”.
